Patent US20070243180A1, “Composition Containing Reduced Coenzyme Q” (priority 2003, published 2007)

Key:
[1] = Solubility testing in water; format: physicochemical; settings: 1 g in 100 ml of water, stirred at 5,000 rpm for 30 seconds, observed after 1 hour of standing
Protocol: Coenzyme Q10 bulk powder (Q-OH bulk powder) containing 98% of reduced coenzyme Q10 and the powdery compositions obtained in Examples 1 to 4 were subjected to solubility testing in the following manner. Thus, 1 g of each composition (test sample) was added to 100 ml of water, and the mixture was stirred at 5,000 rpm for 30 seconds using a mixer and then allowed to stand.

[2] = Stability testing of reduced coenzyme Q10 against autooxidation on storage in air, protected against light; format: physicochemical; settings: in the presence of air, at 4 weeks after starting storage, HPLC
Protocol: In the examples, a reduced coenzyme Q concentration and an oxidized coenzyme Q concentration were determined by the following HPLC analysis. Column; SYMMETRY C18 (product of Waters Corporation), 250 mm (length), 4.6 mm (inside diameter), mobile phase; C2H5OH:CH3OH=4:3 (v:v), detection wavelength; 210 nm, flow rate; 1 ml/min, retention time for a reduced coenzyme Q10; 9.1 min, retention time for an oxidized coenzyme Q10; 13.3 min. Reduced coenzyme Q10 bulk powder (Q-OH bulk powder) containing 2% of oxidized coenzyme Q10 and the powdery compositions I to IV respectively obtained in Examples 1 to 4 were subjected to stability testing in the following manner. Thus, each composition (test sample) was placed in a microtube and stored, in a state protected against light, at 23° C. or 40° C. in the presence of air. After 1, 2 or 4 weeks of storage, 25 mg of each sample was sampled and dissolved in ethanol, the concentrations of oxidized coenzyme Q10 and reduced coenzyme Q10 were measured by HPLC and the percentage of reduced coenzyme Q10 in total coenzyme Q10 as contained in the composition (test sample) was determined.

In the case of `COc1c(O)c(C)c(C/C=C(\C)CC/C=C(\C)CC/C=C(\C)CC/C=C(\C)CC/C=C(\C)CC/C=C(\C)CC/C=C(\C)CC/C=C(\C)CC/C=C(\C)CCC=C(C)C)c(O)c1OC` [reduced coenzyme Q10], the Solubility in water [1] is reported as “Insoluble”, the Solubility in water ([1]; listed as Coenzyme Q10 bulk powder (Q-OH bulk powder)) is reported as “insoluble, forming orange-colored oil drops floating on the water” and the “residual reduced coenzyme Q10 percentage relative to total coenzyme Q10 contained in the composition” value ([2]; stored at 23° C.) is reported as 41%. The “residual reduced coenzyme Q10 percentage relative to total coenzyme Q10 contained in the composition” value ([2]; stored at 40° C.) was 11%.
